Assay results: ChEMBL document CHEMBL6127031, “Novel multitarget directed ligands inspired by riluzole: A serendipitous synthesis of substituted benzo[b][1,4]thiazepines potentially useful as neuroprotective agents” (Bioorg Med Chem, 2024)
The source made the active and inactive calls. The rule behind the calls is not given here.

What was measured:
[1] = system: Cerebral cortex; assay: Neuroprotective activity against OGD/R induced injury in male Wistar rat brain cortical slices assessed as reversal of LDH release at 0.001 to 10 uM by spectrophometric analysis; type: functional, tissue-based; details: dose 0.001-10 µM
[2] = system: Cerebral cortex; assay: Neuroprotective activity against OGD/R induced injury in male Wistar rat brain cortical slices assessed as reversal of tissue water gain at 0.001 to 10 uM; type: functional, tissue-based; details: dose 0.001-10 µM
[3] = Permeability of the compound assessed as membrane retention rate by PAMPA method; type: ADME
[4] = Apparent permeability of the compound in PBS buffer at pH 7.4 incubated for 4 hrs under shaking condition by LC-UV-MS analysis; type: ADME; details: not told
[5] = system: SH-SY5Y; assay: Inhibition of K channel in human SH-SY5Y cells assessed as change in channel activation at 50 uM under +25 to +55 mV by whole-cell patch clamp assay; type: cell-based
[6] = system: SH-SY5Y; assay: Inhibition of K channel in human SH-SY5Y cells assessed as reduction in steady-state component of KDR current at 50 uM under +60mV by whole-cell patch clamp assay relative to control; type: cell-based
[7] = system: SH-SY5Y; assay: Inhibition of Na channel in human SH-SY5Y cells assessed as maximum conductance at 50 uM by whole-cell patch clamp assay relative to control; type: cell-based
[8] = system: Cerebral cortex; assay: Neuroprotective activity against OGD/R induced injury in male Wistar rat brain cortical slices assessed as reversal of LDH release at 0.01 to 10 uM by spectrophometric analysis; type: functional, tissue-based; details: dose 0.01-10 µM
[9] = system: SH-SY5Y; assay: Inhibition of K channel in human SH-SY5Y cells assessed as decrease in maximum conductance at 50 uM under +25 to +55 mV by whole-cell patch clamp assay relative to control; type: cell-based
[10] = system: SH-SY5Y; assay: Inhibition of Na channel in human SH-SY5Y cells assessed as normalized peak current density at 50 uM under -25 mV by whole-cell patch clamp assay; type: cell-based
[11] = system: SH-SY5Y; assay: Inhibition of Na channel in human SH-SY5Y cells assessed as reduction in current amplitude at 50 uM by whole-cell patch clamp assay relative to control; type: cell-based
[12] = system: SH-SY5Y; assay: Inhibition of Na channel in human SH-SY5Y cells assessed as change in channel activation at 50 uM under -30 to + 20 mV by whole-cell patch clamp assay; type: cell-based
[13] = system: Cerebral cortex; assay: Neuroprotective activity against OGD/R induced injury in male Wistar rat brain cortical slices assessed as reversal of tissue water gain at 0.01 to 10 uM; type: functional, tissue-based; details: dose 0.01-10 µM
[14] = system: Cerebral cortex; assay: Neuroprotective activity against OGD/R induced injury in male Wistar rat brain cortical slices assessed as reversal of tissue water gain at 0.01 to 1 uM; type: functional, tissue-based; details: dose 0.01-1 µM
[15] = system: Cerebral cortex; assay: Neuroprotective activity against OGD/R induced injury in male Wistar rat brain cortical slices assessed as reversal of LDH release at 0.01 to 1 uM by spectrophometric analysis; type: functional, tissue-based; details: dose 0.01-1 µM
[16] = system: Cerebral cortex; assay: Neuroprotective activity against OGD/R induced injury in male Wistar rat brain cortical slices assessed as effect on tissue edema at 10 uM; type: functional, tissue-based
[17] = system: Cerebral cortex; assay: Neuroprotective activity against OGD/R induced injury in male Wistar rat brain cortical slices assessed as effect on LDH release at 10 uM by spectrophometric analysis; type: functional, tissue-based
[18] = system: Cerebral cortex; assay: Neuroprotective activity against OGD/R induced injury in male Wistar rat brain cortical slices assessed as effect on LDH release at 1 uM by spectrophometric analysis; type: functional, tissue-based

For `N/C(=N\c1nc2ccc([N+](=O)[O-])cc2s1)N1CCCSc2cc([N+](=O)[O-])ccc21`, the Activity [1] was “inactive” and the Activity [2] was “inactive”.

In the case of `CC(C)NCC(O)COc1cccc2ccccc12` (stereo not given) [PROPRANOLOL], the R% [3] is reported as 10.73% and the Papp at 4 h [4] is reported as 17.2 ×10⁻⁶ cm/s.

For `N/C(=N\c1nc2ccccc2s1)N1CCCSc2ccccc21`, the inhibition [5] was “Active”, the inhibition [6] was 28.4% and the inhibition [7] was 28.4%. For the same compound, the R% [3] was 28.24%, the Papp at 4 h [4] was 17 ×10⁻⁶ cm/s and the Activity [8] was “Active”. The inhibition [9] was 35%, the inhibition [10] was “Active” and the inhibition [11] was 28.4%. For the same compound, the inhibition [12] was “Active” and the Activity [13] was “Active”.

In the case of `N/C(=N\c1nc2ccc(OC(F)(F)F)cc2s1)N1CCCSc2cc(OC(F)(F)F)ccc21`, the Activity [14] is reported as “Active”, the Activity [15] is reported as “inactive” and the Activity [16] is reported as “inactive”. For the same compound, the Activity [17] was “inactive” and the Activity [18] was “inactive”.
